Where a SMILES comes first, the peptide text is derived from it. The star is where a group is joined. Palmitoyl = CCCCCCCCCCCCCCCC(=O)*
What was measured:
human plasma proteins [1] = target: T1, human plasma proteins (Homo sapiens, UniProt P06727); test: Mass spectrometry of proteins pulled down with biotinylated SA‐E (SA‐Eb) from human plasma; type: binding
T1 construct: incubated with 50% pooled human plasma at 37 °C for 2 h; from tissue; host or cells: pooled human plasma (50%)
T1 sequence (P06727 21-396): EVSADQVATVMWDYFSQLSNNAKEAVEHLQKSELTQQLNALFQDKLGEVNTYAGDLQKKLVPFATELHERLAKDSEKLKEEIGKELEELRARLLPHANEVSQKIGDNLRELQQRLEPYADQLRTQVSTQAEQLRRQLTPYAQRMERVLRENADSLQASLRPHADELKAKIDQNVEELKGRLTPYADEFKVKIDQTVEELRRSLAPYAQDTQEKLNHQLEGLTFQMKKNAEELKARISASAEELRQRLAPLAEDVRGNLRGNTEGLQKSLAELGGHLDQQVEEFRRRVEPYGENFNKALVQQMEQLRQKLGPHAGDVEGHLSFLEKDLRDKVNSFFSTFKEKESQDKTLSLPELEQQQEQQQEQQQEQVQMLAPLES
Method: (§1) Samples were prepared for mass spectrometry analysis via a pull‐down of a biotinylated version of the SA‐E probe (SA‐Eb, 100 µM) incubated with 50% pooled human plasma at 37 °C for 2 h. Before incubation with the SA‐Eb‐plasma mixture, magnetic streptavidin‐coated beads (Dynabeads MyOne Streptavidin T1, Invitrogen, 65601) were washed with PBS (10 mM, pH 7.4) then blocked with 1% casein equal to the total initial volume of beads for 15 min at room temperature. After blocking, beads were washed again with PBS. Beads were then combined with SA‐Eb‐plasma solution, 25 µL beads to 200 µL mixture. This mixture was then incubated at room temperature for 30 min. After incubation, the remaining solution was removed, and the beads were washed five times with PBS. Bound SA‐Eb was eluted from beads in 30 µL 0.5% Triton X‐100 solution. Magnetic beads were then removed, and the elution was collected for analysis. For plasma control, the incubation with SA‐Eb step was skipped, and 50% plasma in PBS was incubated with beads and washed and eluted using the same method as the SA‐Eb‐plasma solution. The elution solutions were then analyzed by the Proteomics Shared Resource facility at Oregon Health & Science University (See Supporting Information for details).
(§2) Sample Preparation. Eluted plasma samples were dried down and stored at -80°C. Samples were thawed at room temperature for 10 min, and 75 µL of SDS protein extraction buffer (5% SDS, 50 mM […]; TEAB) was added to each sample. Samples were shaken in a Thermo mixer for 10 minutes at room temperature and centrifuged at 10,000 g for 5 min. Each sample was transferred from a 0.5 mL tube to a 1.5 mL LoBind centrifuge tube. Samples were reduced by adding 3.4 µL of 0.5 M dithiothreitol and incubated at 95 °C for 10 min. Samples were alkylated by the addition of 6.8 µL of 0.5 M iodoacetamide and were incubated at room temperature for 30 min in the dark. Samples were then acidified by the addition of 8.52 µL of 12% phosphoric acid, and 562 µL of SDS protein binding buffer (90% methanol, 100 mM TEAB, pH 7.51). Samples were transferred 165 µL at a time to S-trap micro columns (Protifi, Farmingdale, NY) and inserted into 1.5 mL of polypropylene tubes. Samples were centrifuged at 4,000 g for 3 min between each addition of the sample. S-trap columns were washed 6 times using 150 µL of 90% methanol containing 100 mM of TEAB followed by centrifugation at 4,000g for 3 min between each wash step. S-trap columns containing the bound sample proteins were transferred to 1.5 mL LoBind centrifuge tubes and 40 µL of 80 ng/µL sequencing grade modified trypsin (Pierce TM Trypsin Protease MS-Grade, XG348166) in 50 mM TEAB was added. S-trap columns were loosely capped, and digestion was performed at 37°C overnight in a humidified chamber.
(§3) After completion of digestion, peptides were eluted by sequential addition of 40 µL of TEAB, 40 µL of 0.2% aqueous formic acid, and 40 µl of 50% acetonitrile, 0.2% formic acid, with centrifugation at 4,000 g for 4 min between each addition of elution buffer. The elution fractions were combined and then dried by vacuum centrifugation. Samples were reconstituted by adding 20 µL of 5% formic acid, shaking at 37 °C, and spinning at 15,000 g for 5 min. The supernatant of each sample was transferred to an auto-sample vial.
(§4) Data analysis. Mass spectrometry data from all samples were processed using COMET/PAWS against Uniprot_Human_database. Comet (v. 2016.01, rev. 3)^8 was used to search MS2 Spectra against a January 2023 version of canonical FASTA protein database containing human uniprot sequences, and concatenated sequence-reversed entries to estimate error thresholds and 179 common contaminant sequences and their reversed forms. The database processing was performed using python scripts available at https://github.com/pwilmart/fasta_utilities.git and Comet results were processed using the PAW pipeline2 from https://github.com/pwilmart/PAW_pipeline.git.

human plasma proteins [2] = target: T2, human plasma proteins (Homo sapiens, UniProt P08519); test: as above; type: binding
T2 construct: incubated with 50% pooled human plasma at 37 °C for 2 h; from tissue; host or cells: pooled human plasma (50%)
T2 sequence (P08519 20-2040): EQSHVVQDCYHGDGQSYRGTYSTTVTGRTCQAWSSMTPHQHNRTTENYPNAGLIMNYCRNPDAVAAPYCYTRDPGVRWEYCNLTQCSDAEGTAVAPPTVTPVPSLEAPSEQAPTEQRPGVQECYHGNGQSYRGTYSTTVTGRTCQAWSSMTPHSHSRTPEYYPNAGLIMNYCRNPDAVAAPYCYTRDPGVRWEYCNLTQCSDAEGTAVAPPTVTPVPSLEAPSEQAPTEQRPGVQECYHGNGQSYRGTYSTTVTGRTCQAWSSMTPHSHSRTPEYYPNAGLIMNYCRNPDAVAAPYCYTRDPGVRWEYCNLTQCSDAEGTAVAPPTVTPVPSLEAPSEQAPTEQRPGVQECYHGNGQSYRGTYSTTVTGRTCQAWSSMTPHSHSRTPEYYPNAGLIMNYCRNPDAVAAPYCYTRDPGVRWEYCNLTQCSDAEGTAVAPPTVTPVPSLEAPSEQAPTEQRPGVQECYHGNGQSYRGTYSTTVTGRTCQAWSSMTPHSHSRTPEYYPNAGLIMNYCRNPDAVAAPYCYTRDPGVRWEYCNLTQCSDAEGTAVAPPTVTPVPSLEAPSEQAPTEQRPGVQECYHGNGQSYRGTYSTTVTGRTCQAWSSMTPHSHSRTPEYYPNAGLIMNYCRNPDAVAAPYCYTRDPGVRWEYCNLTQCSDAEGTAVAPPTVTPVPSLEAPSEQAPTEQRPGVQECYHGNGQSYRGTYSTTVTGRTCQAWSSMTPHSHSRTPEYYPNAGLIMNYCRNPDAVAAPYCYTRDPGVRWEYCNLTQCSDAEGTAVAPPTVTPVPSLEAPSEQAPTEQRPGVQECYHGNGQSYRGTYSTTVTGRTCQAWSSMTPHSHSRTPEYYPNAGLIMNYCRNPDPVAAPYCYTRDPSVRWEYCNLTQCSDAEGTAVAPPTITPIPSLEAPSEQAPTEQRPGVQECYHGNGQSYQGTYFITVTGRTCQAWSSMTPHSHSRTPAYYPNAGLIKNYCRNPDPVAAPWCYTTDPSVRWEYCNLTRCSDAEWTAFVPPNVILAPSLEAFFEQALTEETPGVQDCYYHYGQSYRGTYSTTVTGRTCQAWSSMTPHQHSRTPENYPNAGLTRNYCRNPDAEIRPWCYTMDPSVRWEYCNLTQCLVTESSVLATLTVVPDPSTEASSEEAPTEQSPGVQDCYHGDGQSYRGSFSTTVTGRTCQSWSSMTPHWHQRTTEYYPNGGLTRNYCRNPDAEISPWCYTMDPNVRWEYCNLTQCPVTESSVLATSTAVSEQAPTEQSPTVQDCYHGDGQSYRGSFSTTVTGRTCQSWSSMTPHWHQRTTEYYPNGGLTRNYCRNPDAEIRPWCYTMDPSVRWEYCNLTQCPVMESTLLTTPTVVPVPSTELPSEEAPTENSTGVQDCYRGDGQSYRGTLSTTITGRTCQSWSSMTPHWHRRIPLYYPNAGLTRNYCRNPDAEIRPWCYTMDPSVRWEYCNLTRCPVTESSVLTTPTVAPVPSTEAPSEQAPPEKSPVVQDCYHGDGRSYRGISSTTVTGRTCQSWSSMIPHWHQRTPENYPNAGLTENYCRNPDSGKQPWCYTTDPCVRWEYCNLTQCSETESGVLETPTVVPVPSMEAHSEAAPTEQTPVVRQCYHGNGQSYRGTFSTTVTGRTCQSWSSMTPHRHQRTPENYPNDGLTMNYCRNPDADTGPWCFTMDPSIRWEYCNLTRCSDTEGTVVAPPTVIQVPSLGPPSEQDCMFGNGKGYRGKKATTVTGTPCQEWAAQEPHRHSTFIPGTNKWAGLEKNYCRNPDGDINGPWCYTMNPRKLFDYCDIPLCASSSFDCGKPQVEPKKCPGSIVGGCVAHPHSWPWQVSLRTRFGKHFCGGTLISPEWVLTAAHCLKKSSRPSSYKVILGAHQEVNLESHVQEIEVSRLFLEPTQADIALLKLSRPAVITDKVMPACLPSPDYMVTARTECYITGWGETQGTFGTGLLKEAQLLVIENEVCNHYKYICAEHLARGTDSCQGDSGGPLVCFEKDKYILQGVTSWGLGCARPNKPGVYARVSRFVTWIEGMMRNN
Method: as §1, §2, §3, §4

[3] = Blood circulation in mice; type: in vivo, mouse; details: wild type mice, 50 nmol IV
Method: For blood circulation experiments, Balb/c mice were injected with 100 µL of ICG conjugated PAs or No‐SA, or free ICG (0.5 mM). Then, blood was drawn via the saphenous vein or retro‐orbitally at different time points (immediately after injection to 1 day). […] Blood from wild type mice was collected to prepare calibration curves for each probe. To each 18 µL aliquot of blood, 2 µL of probe stock solution (0.5 mM) was added and incubated at 37 °C for 1 h. The spiked samples were then serially diluted in blood between 50 and 0.1 µM. For fluorescence measurement, 2 µL of each diluted sample was further diluted into 98 µL of PBS, and ICG fluorescence was measured using a TECAN plate reader.

[4] = system: HeLa human cervical cancer cells; test: Uptake of SA‐E by wild type or LDL‐R knockout cells; type: cell-based; details: Cy5 SA‐E 20 µM, 10% FBS DMEM
Method: For LDL‐R studies, 2 × 10^5 wild type or LDL‐R‐/‐ HeLa human cervical cancer cells were grown to near confluency in 96 well plates with black walls and flat glass bottom. Cy5 conjugated SA‐E (20 µM) was preincubated in DMEM containing 10% FBS for 30 min at 37 °C. Wells were aspirated, and 100 µL of the SA‐E containing DMEM was added. The plate was incubated for 30 min, as above. The wells were washed with sterile PBS, as above, media was added, and the plate was returned to the incubator for 1 h. Wells were aspirated, and nuclei were stained with Hoechst as above. Wells were aspirated, and 100 µL of phenol red free DMEM with 10% FBS was added to each well. Cells were then imaged for Cy5 conjugated SA‐E with a Zeiss Apotome 3 microscope at 20x and 63x objectives using Zen software.

## CCCCCCCCCCCCCCCC(=O)NCC(=O)NCC(=O)NCC(=O)N[C@@H](Cc1c[nH]cn1)C(=O)N[C@@H](C)C(=O)N[C@@H](C)C(=O)N[C@@H](CC(N)=O)C(=O)NCC(=O)N[C@@H](CCC(=O)O)C(=O)N[C@@H](CCC(=O)O)C(=O)N[C@@H](CS)C(=O)N[C@@H](CCC(=O)O)C(=O)O [SA‐E] (Palmitoyl-GGGHAANGEECE-OH)
Human plasma proteins [1]; replicate 1
  Percentage, Apolipoprotein A-IV: 1.1%
  Total Counts, Apolipoprotein A-IV: 39
Human plasma proteins [1]; replicate 2
  Percentage, Apolipoprotein A-IV: 0.6%
  Total Counts, Apolipoprotein A-IV: 16
Human plasma proteins [2]; replicate 1
  Percentage, Apolipoprotein(a): 0.1%
  Total Counts, Apolipoprotein(a): 4
Human plasma proteins [2]; replicate 2
  Percentage, Apolipoprotein(a): 0.1%
  Total Counts, Apolipoprotein(a): 3
[3]
  AUC of blood circulation plot relative to SA‐K: 2.1 fold
[4]
  uptake in LDL‐R‐/‐ cells compared to wild type: did not observe any significant change

From article PMC12801355, “Peptide Amphiphiles Hitchhike on Endogenous Biomolecules for Enhanced Cancer Imaging and Therapy” (Advanced Materials (Deerfield Beach, Fla.), 2025)
